Assay results from patent publication US20230255938A1, “COMPOSITION FOR INHIBITING SEBUM SECRETION COMPRISING FABP4 INHIBITOR” (THE INDUSTRY & ACADEMIC COOPERATION IN CHUNGNAM NATIONAL …, priority 2022, published 2023).

How the values were obtained:
Assay type in all cases: cell-based
[1] = test system: SREBP-1; experiment: Western blotting of SREBP-1 in IGF-1-treated immortalized human sebocytes; details: 1, 2 or 5 μM BMS309403 for 1 hour, then 50 ng/mL IGF-1; Western blot, FIG. 1 upper left
Protocol: (§1) Immortalized human sebocytes were used for the experiment. The cell lines were established as previously described. All procedures were approved by the Institutional Committee of Chungnam National University Hospital. The immortalized human sebocytes were cultured in Sebomed medium (Biochrom, Berlin, Germany) supplemented with 10% fetal bovine serum (Gibco BRL, Rockville, Md., USA) and 5 ng/mL of recombinant human EGF (Invitrogen, Grand Island, N.Y., USA).
(§2) After harvesting, the cells were lysed in protein extraction solution (Intron, Daejeon, Korea). Equal amounts of protein were then loaded and separated by […], and then the proteins were transferred onto nitrocellulose membranes (Pall Corp., Port Washington, N.Y., USA). After blocking with 5% skim milk, the membranes were incubated with various primary antibodies. The blot was reacted with a secondary antibody conjugated with peroxidase, and were visualized for specific proteins with ECL (BIOMAX, Seoul, Korea). The primary antibodies used in western blot analysis were as follows: Actin, SREBP-1(Santa Cruz, Calif.), PPAR-γ, phospho-IGFR (p-IGFR), phospho-Akt (Cell Signaling Technology, Danvers, Mass.)
(§3) The effect of BMS309403 on IGF-1-induced lipid synthesis was measured using an immortalized human sebaceous cell line established in a previous study. Immortalized human sebocytes were treated with 1, 2 or 5 μM of BMS309403. […]

[2] = test system: PPAR-γ; experiment: Western blotting of PPAR-γ in IGF-1-treated immortalized human sebocytes; details: 1, 2 or 5 μM BMS309403 for 1 hour, then 50 ng/mL IGF-1; Western blot, FIG. 1 upper left
Protocol: as §1, §2, §3

[3] = test system: phospho-IGFR (p-IGFR); experiment: Western blotting of phospho-IGFR in IGF-1-treated immortalized human sebocytes; details: 1, 2 or 5 μM BMS309403 for 1 hour, then 50 ng/mL IGF-1; Western blot, FIG. 1 lower left
Protocol: as §1, §2, §3

[4] = test system: phospho-Akt; experiment: Western blotting of phospho-Akt in IGF-1-treated immortalized human sebocytes; details: 1, 2 or 5 μM BMS309403 for 1 hour, then 50 ng/mL IGF-1; Western blot, FIG. 1 lower left
Protocol: as §1, §2, §3

[5] = test system: immortalized human sebocytes; experiment: TLC of intracellular lipids (14C-acetate), IGF-1-induced lipid synthesis; details: 1, 2 or 5 μM; TLC 48 hours after IGF-1 (50 ng/mL) treatment; FIG. 1 right
Protocol: as §1
For quantitative analysis of intracellular lipids, the present invention used the TLC method as used in previous studies. Briefly, immortalized human sebocytes were cultured in a medium containing 2 μCi of ^14C-acetate and sodium salt (PerkinElmer, Boston, Mass., USA) and allowed to react for 4 hours. Intracellular lipids were extracted with chloroform and methanol (2:1, v/v). The solvent was evaporated and the lipid was resuspended in chloroform. TLC (TLC silica gel 60 F254, Merck KgaA) was used to separate intracellular lipids. After development with hexane and ethyl acetate (6:1, v/v), intracellular lipids were visualized by radioactivity measurement.
The effect of BMS309403 on IGF-1-induced lipid synthesis was measured using an immortalized human sebaceous cell line established in a previous study. Immortalized human sebocytes were treated with 1, 2 or 5 μM of BMS309403. After treatment with BMS309403 for 1 hour, sebocytes were treated with 50 ng/mL of IGF-1 to induce differentiation and lipid synthesis.
IGF-1 increased the Intracellular lipid synthesis such as cholesterol, triglycerides, wax esters and squalene in immortalized human sebocytes.

## CCc1c(-c2ccccc2)c(-c2ccccc2)nn1-c1ccccc1-c1cccc(OCC(=O)O)c1 [BMS309403]
[1]
  level of SREBP-1 (transcription factor related to sebocyte differentiation): decreased their levels in a dose-dependent manner
[2]
  level of PPAR-γ (transcription factor related to sebocyte differentiation): decreased their levels in a dose-dependent manner
[3]
  phosphorylation of IGFR: markedly reduced phosphorylation of IGFR and Akt in a dose-dependent manner
[4]
  phosphorylation of Akt: markedly reduced phosphorylation of IGFR and Akt in a dose-dependent manner
[5]
  IGF-1-induced lipid synthesis (cholesterol, triglycerides, wax esters and squalene): reduced IGF-1-induced lipid synthesis
  intracellular lipid accumulation: reduced intracellular lipid accumulation in a dose-dependent manner
  synthesis of squalene: significantly reduced
  synthesis of wax esters: significantly reduced
